# Biological target: PI 3-Kinase Gamma (Homo sapiens (Human), UniProt P48736)
# Test: Cellular U937 AKT assay for PI 3-kinase gamma
# Type: cell-based
# Settings: U937 cells, MIP1α-stimulated AKT phosphorylation, read-out: Cell PI3K gamma IC50
# Experimental: The U937 monocyte cell line is maintained in a basal medium of RPMI 1640 supplemented with 10% heat inactivated FCS, 100 U/ml Penicillin, 100 ug/ml streptomycin and 2 mM L-glutamine (Invitrogen). U937 suspension culture is maintained by seeding cells at a density of 0.125×10^6 cells per ml in fresh medium every three or four days. Cells are incubated at 37° C., 5% CO2. […] Before beginning the cell manipulations described below, the MSD (Meso Scale Discovery) assay plate is blocked by addition of 150 ul/well blocking buffer supplied and incubated with shaking for a minimum of one hour at room temperature. All steps of the assay must be performed quickly, with accurately timed incubation periods and observing temperature controls where indicated. […] Falcon tube, counted and centrifuged for eight minutes at 300 g at room temperature. Supernatant is aspirated, the cell pellet resuspended and washed once in HBSS (Hank's Balanced Salt Solution) by centrifugation for eight minutes at 300 g at room temperature. The cell pellet is resuspended in HBSS to a concentration of 4×10^6 per ml, and 100 μL of cell suspension added to each well of a flat-bottomed 96-well tissue culture plate. Assay plates are incubated for 1.5 hours at 37° C., 5% CO2 to allow background AKT phosphorylation to reduce before the compound stimulation step. […] Compound concentrations at this stage are 4-times the final concentration required in the assay plate. Cells are stimulated with compound or HBSS 0.8% DMSO by direct transfer of 50 ul/well from the compound dilution plate. The assay plate containing compound-treated cells is then incubated for 30 minutes at 37° C. A standard plate layout is used for all experiments. Compound-treated cells, in addition to positive control wells (“max MIP1α”), are stimulated with 50 μL per well of 40 ng/ml MIP1α (R&D Systems catalogue number 270-LD, lyophilized stock reconstituted to 50 μg/ml with PBS 0.1% BSA). Negative control wells (“min HBSS”), are stimulated with 50 μl/well of HBSS in the absence of MIP1α. […] Cells are incubated with MIP1α for 3 minutes, at 37° C., 5% CO2. After the three minute stimulation period, the assay plate is kept ice cold at all times. Assay plates are centrifuged for 2 minutes at 300 g, 4° C. and supernatant is removed by gently inverting, and then blotting the plate on tissue. Cells are then washed by gentle addition of 150 μL/well of ice cold HBSS and centrifugation at 300 g, for 5 minutes at 4° C. Supernatant is aspirated and the plate blotted as described above. The plate is placed on ice and cells are immediately treated with 35 μL per well of ice cold lysis buffer, prepared according to the kit instructions (per assay plate, to 5 ml of Tris lysis buffer add 100 μl of 50× protease inhibitor solution and 50 μl of each 100× phosphatase inhibitor solutions I and II). Plates are incubated on ice for 20 minutes before centrifugation at 841 g for 5 minutes, 4° C. Block buffer is aspirated from the MSD plate, and the plate washed four times with 300 μl/well Tris wash buffer. 25 μL of cell lysate is then transferred from the assay plate to the washed MSD plate which is sealed and incubated at room temperature for one hour with shaking. The plate is washed four times with 300 μL per well of Tris wash buffer before addition of 25 μL per well of sulfo-tag anti-total AKT/pAKT detection antibody (60 μl of 50× antibody stock is diluted in 1 ml block buffer mixed with 2 ml wash buffer) and incubated at room temperature for one hour with shaking. The plate is washed four times with 300 μl per well of Tris wash buffer and 150 μl per well of Read buffer is added, taking care to avoid the introduction of bubbles. The plate is immediately read using an MSD SECTOR Imager 6000. Results are exported in Excel and the percentage of phosphorylated AKT is calculated using the equation: % Phosphoprotein=((2*Phospho signal)/(Phospho signal+Total signal))*100. […]
# Sequence of PI 3-Kinase Gamma (P48736 whole entry): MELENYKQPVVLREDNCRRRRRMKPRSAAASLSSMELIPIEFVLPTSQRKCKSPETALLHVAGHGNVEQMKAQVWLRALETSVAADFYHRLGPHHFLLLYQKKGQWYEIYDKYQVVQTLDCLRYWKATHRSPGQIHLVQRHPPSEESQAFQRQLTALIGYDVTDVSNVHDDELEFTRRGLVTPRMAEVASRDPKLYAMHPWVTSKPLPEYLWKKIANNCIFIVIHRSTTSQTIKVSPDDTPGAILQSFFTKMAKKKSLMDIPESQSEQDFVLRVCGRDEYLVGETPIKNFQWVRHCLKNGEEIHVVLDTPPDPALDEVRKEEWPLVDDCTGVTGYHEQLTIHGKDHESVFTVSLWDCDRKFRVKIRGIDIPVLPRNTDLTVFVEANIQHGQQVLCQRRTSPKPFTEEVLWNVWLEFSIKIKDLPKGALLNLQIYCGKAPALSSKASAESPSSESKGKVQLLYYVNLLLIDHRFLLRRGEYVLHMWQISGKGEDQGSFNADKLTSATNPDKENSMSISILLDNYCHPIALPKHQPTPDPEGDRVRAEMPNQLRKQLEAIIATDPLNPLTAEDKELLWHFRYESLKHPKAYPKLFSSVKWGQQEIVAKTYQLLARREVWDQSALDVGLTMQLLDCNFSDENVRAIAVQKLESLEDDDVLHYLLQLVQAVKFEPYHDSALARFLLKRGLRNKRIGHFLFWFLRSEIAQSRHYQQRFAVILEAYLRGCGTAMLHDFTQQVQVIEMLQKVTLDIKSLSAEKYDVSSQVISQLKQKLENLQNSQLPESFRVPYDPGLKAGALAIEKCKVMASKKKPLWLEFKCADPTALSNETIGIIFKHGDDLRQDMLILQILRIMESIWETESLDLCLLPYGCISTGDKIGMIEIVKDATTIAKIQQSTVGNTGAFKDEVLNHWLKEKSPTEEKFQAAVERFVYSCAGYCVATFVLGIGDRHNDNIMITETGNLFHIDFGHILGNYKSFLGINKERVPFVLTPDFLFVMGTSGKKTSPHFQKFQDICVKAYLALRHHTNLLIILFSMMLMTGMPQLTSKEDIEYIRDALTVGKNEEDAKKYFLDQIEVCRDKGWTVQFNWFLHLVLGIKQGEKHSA
row,Structure (SMILES),IC50 [µM]
1,"Cc1nc(N)nc(N2C[C@@H](O)C[C@H]2c2nc3cccc(-c4cccnc4)c3c(=O)n2-c2ccccc2)c1C#N [Example 24, 2-Amino-4-((2S,4S)-4-hydroxy-2-(4-oxo-3-phenyl-5-(pyridin-3-yl)-3,4-dihydroquinazolin-2-yl)pyrrolidin-1-yl)-6-methylpyrimidine-5-carbonitrile]",0.009
2,"COc1cncc(-c2cccc3nc([C@@H]4C[C@H](O)CN4c4nc(N)nc(C)c4C#N)n(-c4ccccc4)c(=O)c23)c1 [Example 25, 2-Amino-4-((2S,4S)-4-hydroxy-2-(5-(5-methoxypyridin-3-yl)-4-oxo-3-phenyl-3,4-dihydroquinazolin-2-yl)pyrrolidin-1-yl)-6-methylpyrimidine-5-carbonitrile]",0.049
3,"Cc1nc(N)nc(N2C[C@@H](O)C[C@H]2c2nc3cccc(-c4cncnc4)c3c(=O)n2-c2ccccc2)c1C#N [Example 26, 2-Amino-4-((2S,4S)-4-hydroxy-2-(4-oxo-3-phenyl-5-(pyrimidin-5-yl)-3,4-dihydroquinazolin-2-yl)pyrrolidin-1-yl)-6-methylpyrimidine-5-carbonitrile]",0.17
4,"COc1ccc(-c2cccc3nc([C@@H]4C[C@H](O)CN4c4nc(N)nc(C)c4C#N)n(-c4ccccc4)c(=O)c23)cn1 [Example 27, 2-Amino-4-((2S,4S)-4-hydroxy-2-(5-(6-methoxypyridin-3-yl)-4-oxo-3-phenyl-3,4-dihydroquinazolin-2-yl)pyrrolidin-1-yl)-6-methylpyrimidine-5-carbonitrile]",0.063
5,"Cc1nc(N)nc(N2C[C@@H](O)C[C@H]2c2nc3cccc(-c4cnn(CCO)c4)c3c(=O)n2-c2ccccc2)c1C#N [Example 28, 2-Amino-4-((2S,4S)-4-hydroxy-2-(5-(1-(2-hydroxyethyl)-1H-pyrazol-4-yl)-4-oxo-3-phenyl-3,4-dihydroquinazolin-2-yl)pyrrolidin-1-yl)-6-methylpyrimidine-5-carbonitrile]",0.12
6,"CCOc1ncc(-c2c(F)ccc3nc([C@@H]4C[C@H](O)CN4c4nc(N)nc(C)c4C#N)n(-c4ccccc4)c(=O)c23)cn1 [Example 29, 2-Amino-4-((2S,4S)-2-(5-(2-ethoxypyrimidin-5-yl)-6-fluoro-4-oxo-3-phenyl-3,4-dihydroquinazolin-2-yl)-4-hydroxypyrrolidin-1-yl)-6-methylpyrimidine-5-carbonitrile]",0.038
7,"Cc1nc(N)nc(N2C[C@@H](F)C[C@H]2c2nc3cccc(-c4cnn(C)c4)c3c(=O)n2-c2ccccc2)c1C#N [Example 30, 2-Amino-4-((2S,4S)-4-fluoro-2-(5-(1-methyl-1H-pyrazol-4-yl)-4-oxo-3-phenyl-3,4-dihydroquinazolin-2-yl)pyrrolidin-1-yl)-6-methylpyrimidine-5-carbonitrile]",0.011
8,"Cc1nc(N)nc(N2C[C@@H](O)C[C@H]2c2nc3ccc(F)c(-c4cn(C)cn4)c3c(=O)n2-c2ccccc2)c1C#N [Example 31, 2-Amino-4-((2S,4S)-2-(6-fluoro-5-(1-methyl-1H-imidazol-4-yl)-4-oxo-3-phenyl-3,4-dihydroquinazolin-2-yl)-4-hydroxypyrrolidin-1-yl)-6-methylpyrimidine-5-carbonitrile]",0.24
9,"CCOc1ncc(-c2cccc3nc([C@@H]4CCCN4c4nc(N)nc(C)c4C#N)n(-c4ccccc4)c(=O)c23)cn1 [Example 32, (S)-2-Amino-4-(2-(5-(2-ethoxypyrimidin-5-yl)-4-oxo-3-phenyl-3,4-dihydroquinazolin-2-yl)pyrrolidin-1-yl)-6-methylpyrimidine-5-carbonitrile]",0.72
10,"N#Cc1c(N)ncnc1N1CCC[C@H]1c1nc2cccc(C#CCO)c2c(=O)n1-c1ccccc1 [Example 33, (S)-4-Amino-6-(2-(5-(3-hydroxyprop-1-yn-1-yl)-4-oxo-3-phenyl-3,4-dihydroquinazolin-2-yl)pyrrolidin-1-yl)pyrimidine-5-carbonitrile]",0.12

# From patent US9840498B2, “Substituted quinazolin-4-one derivatives” (NOVARTIS AG, priority 2013, dated 2017)
